Experiments:
[1] = test system: E. coli transcribing antisense RNA to rplL and rplJ (AS-rplL/J); experiment: microbe, parasite or virus in culture; assay type: cell-based; settings: for Fold Increase in Sensitivity: IC50 without IPTG versus IC50 with 400 μM IPTG; for Sensitivity Increased?: statistically significant decrease in the IC50 value in the presence of inducer (IPTG)
Experimental: The effectiveness of the above assays was validated using proliferation-required genes from E. coli which were identified using procedures similar to those described above. Antibiotics of various chemical classes and modes of action were purchased from Sigma Chemicals (St. Louis, Mo.). Stock solutions were prepared by dissolving each antibiotic in an appropriate aqueous solution based on information provided by the manufacturer. The final working solution of each antibiotic contained no more than 0.2% (w/v) of any organic solvent. To determine their potency against a bacterial strain engineered for transcription of an antisense comprising a nucleotide sequence complementary to a proliferation-required 50S ribosomal protein, each antibiotic was serially diluted two- or three-fold in growth medium supplemented with the appropriate antibiotic for maintenance of the antisense construct. At least ten dilutions were prepared for each antibiotic. 25 μL aliquots of each dilution were transferred to discrete wells of a 384-well microplate (the assay plate) using a multi-channel pipette. Quadruplicate wells were used for each dilution of an antibiotic under each treatment condition (plus and minus inducer). Each assay plate contained twenty wells for cell growth controls (growth medium replacing antibiotic), ten wells for each treatment (plus and minus inducer, in this example IPTG). Assay plates were usually divided into the two treatments: half the plate containing induced cells and an appropriate concentrations of inducer (in this example IPTG) to maintain the state of induction, the other half containing non-induced cells in the absence of IPTG.
Cells for the assay were prepared as follows. Bacterial cells containing a construct, from which transcription of antisense nucleic acid comprising a nucleotide sequence complementary to rplL and rplJ (AS-rplL/J), which encode proliferation-required 50S ribosomal subunit proteins, is inducible in the presence of IPTG, were grown into exponential growth (OD600 0.2 to 0.3) and then diluted 1:100 into fresh medium containing either 400 μM or 0 μM inducer (IPTG). These cultures were incubated at 37° C. for 2.5 hr. After a 2.5 hr incubation, induced and non-induced cells were respectively diluted into an assay medium at a final OD600 value of 0.0004. The medium contained an appropriate concentration of the antibiotic for the maintenance of the antisense construct. In addition, the medium used to dilute induced cells was supplemented with 800 μM IPTG so that addition to the assay plate would result in a final IPTG concentration of 400 μM. Induced and non-induced cell suspensions were dispensed (25 μl/well) into the appropriate wells of the assay plate as discussed previously. The plate was then loaded into a plate reader, incubated at constant temperature, and cell growth was monitored in each well by the measurement of light scattering at 595 nm. Growth was monitored every 5 minutes until the cell culture attained a stationary growth phase. For each concentration of antibiotic, a percentage inhibition of growth was calculated at the time point corresponding to mid-exponential growth for the associated control wells (no antibiotic, plus or minus IPTG). For each antibiotic and condition (plus or minus IPTG), a plot of percent inhibition versus log of antibiotic concentration was generated and the IC50 determined.

[2] = test system: E. coli transcribing IPTG-inducible antisense clones; experiment: Cell-based assay: antibiotic sensitivity of E. coli transcribing antisense to ribosomal protein genes or to genes not involved in protein synthesis (FIGS. 8, 9); set-up: species or system Escherichia coli
From the text: The effectiveness of the above cell-based assay was validated using constructs transcribing antisense RNA to the proliferation required Escherichia coli genes rplL, rplJ, and rplW encoding ribosomal proteins L7/L12, L10 and L23 respectively. These proteins are essential components of the protein synthesis apparatus of the cell and as such are required for proliferation. These constructs were used to test the effect of antisense transcription on cell sensitivity to antibiotics known to bind to the ribosome and thereby inhibit protein synthesis. Constructs transcribing antisense RNA to several other genes (elaD, visC, yohH, and atpE/B), the products of which are not involved in protein synthesis were used for comparison. […]
The cell populations containing vectors producing AS-elaD or AS-rplW were exposed to a range of IPTG concentrations in liquid medium to obtain the growth inhibitory dose curve for each clone (FIG. 7). First, seed cultures were grown to a particular turbidity measured by the optical density (OD) of the growth solution. […] The cells were grown for up to 15 hours and the extent of growth was determined by measuring the optical density of the cultures at 600 nm. […]

Structure (SMILES)	Fold Increase in Sensitivity [1]	Sensitivity Increased? [1]	sensitivity to erythromycin ([2]; initial experiments, clones transcribing antisense to protein synthesis genes (L7/L12 & L10, L7/L12 alone, L22, L18, rRNA, Elongation Factor G))	sensitivity to antibiotics which do not inhibit protein synthesis ([2]; clone transcribing antisense to rplL and rplJ (AS-rplL/J))
CC[C@H]1OC(=O)[C@H](C)[C@@H](O[C@H]2C[C@@](C)(OC)[C@@H](O)[C@H](C)O2)[C@H](C)[C@@H](O[C@@H]2O[C@H](C)C[C@H](N(C)C)[C@H]2O)[C@](C)(O)C[C@@H](C)C(=O)[C@H](C)[C@@H](O)[C@]1(C)O [Erythromycin]	40 Fold	Yes	increased sensitivity	–
CCn1cc(C(=O)O)c(=O)c2ccc(C)nc21 [Nalidixic acid]	1 Fold	No	–	does not show increased sensitivity
